Source: the supplement of paper PMC6045584
± gives the standard deviation of the averaged measurements.

How the values were obtained:
[1] = compound: CNCc1ccc(-c2[nH]c3cc(F)cc4c3c2CCNC4=O)cc1; experiment: surviving fraction relative to DMSO-only wells; higher = less growth inhibition; settings: exposure time: 5 days
In short: (§1)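 Log-phase tumour cell lines were seeded at 250–500 cells per well in 384-well plates. After 24 hours they were exposed continuously for five days to inhibitors at 0.5, 1, 5, 10, 50, 100, 500 and 1000 nM. Viability was read by CellTiter-Glo luminescence after 10 minutes at room temperature, and surviving fraction is luminescence normalised to the median of DMSO-only wells. Each line was screened three times and kept only if replicate Pearson r >0.7 and median Z' >0.3.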

[2] = compound: O=C(c1cc(Cc2n[nH]c(=O)c3ccccc23)ccc1F)N1CCN(C(=O)C2CC2)CC1 [OLAPARIB]; experiment: as above; settings: exposure time: 5 days
In short: as §1

Test System | surviving fraction ([1]; 0.5 nM) | surviving fraction ([1]; 1 nM) | surviving fraction ([1]; 5 nM) | surviving fraction ([1]; 10 nM) | surviving fraction ([1]; 50 nM) | surviving fraction ([1]; 100 nM) | surviving fraction ([1]; 500 nM) | surviving fraction ([1]; 1000 nM) | surviving fraction ([2]; 0.5 nM) | surviving fraction ([2]; 1 nM) | surviving fraction ([2]; 5 nM) | surviving fraction ([2]; 10 nM) | surviving fraction ([2]; 50 nM) | surviving fraction ([2]; 100 nM) | surviving fraction ([2]; 500 nM) | surviving fraction ([2]; 1000 nM)
DU4475 BREAST | 1.02 ± 0.066 | 0.921 ± 0.1 | 0.969 ± 0.03 | 0.881 ± 0.063 | 0.807 ± 0.12 | 0.696 ± 0.053 | 0.612 ± 0.088 | 0.479 ± 0.074 | 1.16 ± 0.21 | 1.36 ± 0.5 | 1.228 ± 0.009 | 1.22 ± 0.31 | 0.954 ± 0.28 | 0.739 ± 0.23 | 0.689 ± 0.21 | 0.517 ± 0.15
H23 LUNG | 1.05 ± 0.061 | 1.07 ± 0.066 | 1.05 ± 0.025 | 1.1 ± 0.011 | 1.16 ± 0.076 | 1.11 ± 0.043 | 1.14 ± 0.035 | 1.12 ± 0.021 | 1.09 ± 0.03 | 1.07 ± 0.02 | 1.1 ± 0.022 | 1.064 ± 0.004 | 1.22 ± 0.03 | 1.13 ± 0.041 | 1.14 ± 0.0042 | 1.08 ± 0.02
HCC78 LUNG | 1 ± 0.17 | 0.867 ± 0.05 | 1.12 ± 0.22 | 1.13 ± 0.2 | 0.828 ± 0.093 | 1.02 ± 0.15 | 0.936 ± 0.091 | 0.911 ± 0.043 | 0.948 ± 0.06 | 0.986 ± 0.2 | 1.03 ± 0.32 | 1.22 ± 0.46 | 1.12 ± 0.1 | 1.05 ± 0.12 | 0.987 ± 0.19 | 0.859 ± 0.068
HCC202 BREAST | 0.936 ± 0.073 | 1.2 ± 0.39 | 1.21 ± 0.31 | 1.08 ± 0.087 | 1.14 ± 0.21 | 0.78 ± 0.12 | 0.844 ± 0.033 | 0.867 ± 0.13 | 0.896 ± 0.024 | 0.973 ± 0.12 | 0.987 ± 0.19 | 0.92 ± 0.2 | 0.713 ± 0.2 | 0.68 ± 0.026 | 0.737 ± 0.075 | 0.649 ± 0.1
HCC1395 BREAST | 0.901 ± 0.016 | 0.981 ± 0.02 | 1.09 ± 0.011 | 0.92 ± 0.058 | 0.873 ± 0.12 | 0.828 ± 0.071 | 0.736 ± 0.041 | 0.809 ± 0.028 | 0.85 ± 0.034 | 0.934 ± 0.12 | 1.06 ± 0.065 | 1.03 ± 0.037 | 0.93 ± 0.11 | 1.02 ± 0.059 | 0.787 ± 0.096 | 0.799 ± 0.17
HCC1806 BREAST | 1.05 ± 0.074 | 0.879 ± 0.021 | 1.02 ± 0.024 | 1.07 ± 0.094 | 0.77 ± 0.076 | 0.74 ± 0.09 | 0.601 ± 0.046 | 0.521 ± 0.026 | 0.945 ± 0.059 | 1.01 ± 0.063 | 1.05 ± 0.099 | 0.984 ± 0.068 | 0.896 ± 0.12 | 0.74 ± 0.041 | 0.582 ± 0.065 | 0.567 ± 0.066
HCC1954 BREAST | 0.795 ± 0.12 | 0.797 ± 0.11 | 0.947 ± 0.039 | 1.04 ± 0.17 | 0.61 ± 0.082 | 0.549 ± 0.019 | 0.557 ± 0.0088 | 0.464 ± 0.012 | 0.84 ± 0.13 | 0.762 ± 0.033 | 1.1 ± 0.06 | 0.969 ± 0.038 | 0.916 ± 0.092 | 0.6867 ± 0.0046 | 0.719 ± 0.013 | 0.497 ± 0.0021
HCT15 LARGE INTESTINE | 1.03 ± 0.075 | 1.01 ± 0.16 | 1.05 ± 0.13 | 1.05 ± 0.051 | 0.982 ± 0.1 | 0.988 ± 0.093 | 0.996 ± 0.095 | 1.03 ± 0.13 | 1.09 ± 0.06 | 1.06 ± 0.022 | 1.01 ± 0.085 | 1.05 ± 0.065 | 0.998 ± 0.043 | 1.04 ± 0.018 | 0.999 ± 0.055 | 1.03 ± 0.034
HELA CERVIX | 1.09 ± 0.093 | 1.09 ± 0.08 | 1.08 ± 0.054 | 1.03 ± 0.07 | 1.16 ± 0.11 | 1.12 ± 0.16 | 1.14 ± 0.079 | 1.09 ± 0.071 | 1.05 ± 0.064 | 1.09 ± 0.025 | 1.05 ± 0.031 | 1.04 ± 0.036 | 1.13 ± 0.03 | 1.18 ± 0.092 | 1.17 ± 0.014 | 1.19 ± 0.019
HOS BONE | 1.02 ± 0.017 | 1.05 ± 0.034 | 1.01 ± 0.015 | 1.029 ± 0.01 | 1.01 ± 0.023 | 0.994 ± 0.022 | 1.02 ± 0.019 | 0.9833 ± 0.0055 | 1.03 ± 0.022 | 1.03 ± 0.026 | 1.06 ± 0.0091 | 1.012 ± 0.0081 | 1.02 ± 0.028 | 1.01 ± 0.023 | 1.01 ± 0.026 | 0.953 ± 0.041
HOSMNG BONE | 0.936 ± 0.055 | 0.988 ± 0.083 | 0.94 ± 0.14 | 0.857 ± 0.03 | 0.838 ± 0.032 | 0.885 ± 0.089 | 0.929 ± 0.11 | 0.954 ± 0.045 | 0.877 ± 0.088 | 0.991 ± 0.034 | 0.964 ± 0.043 | 0.933 ± 0.049 | 1.02 ± 0.056 | 1.05 ± 0.03 | 1.06 ± 0.021 | 0.925 ± 0.14
HSSYII SYNOVIAL | 0.918 ± 0.023 | 0.915 ± 0.074 | 0.881 ± 0.028 | 0.861 ± 0.027 | 0.696 ± 0.055 | 0.653 ± 0.041 | 0.473 ± 0.05 | 0.343 ± 0.021 | 0.941 ± 0.039 | 0.949 ± 0.027 | 0.882 ± 0.076 | 0.86 ± 0.013 | 0.827 ± 0.022 | 0.769 ± 0.055 | 0.6097 ± 0.0048 | 0.484 ± 0.046
HT1080 SOFT TISSUE | 1.04 ± 0.019 | 1.01 ± 0.014 | 0.983 ± 0.04 | 0.968 ± 0.018 | 0.899 ± 0.018 | 0.869 ± 0.037 | 0.818 ± 0.047 | 0.671 ± 0.068 | 1.02 ± 0.0063 | 0.977 ± 0.023 | 0.9903 ± 0.0038 | 0.965 ± 0.013 | 0.882 ± 0.037 | 0.819 ± 0.032 | 0.7243 ± 0.0055 | 0.608 ± 0.021
HU09 BONE | 1.04 ± 0.068 | 0.977 ± 0.052 | 1.04 ± 0.072 | 0.991 ± 0.066 | 0.965 ± 0.24 | 0.889 ± 0.13 | 0.757 ± 0.051 | 0.669 ± 0.074 | 1.01 ± 0.094 | 0.974 ± 0.031 | 1.04 ± 0.13 | 1.13 ± 0.083 | 0.896 ± 0.063 | 1.09 ± 0.08 | 0.851 ± 0.061 | 0.779 ± 0.096
HUO3N1 BONE | 1.04 ± 0.061 | 1.02 ± 0.062 | 1.04 ± 0.038 | 0.987 ± 0.099 | 0.933 ± 0.06 | 0.988 ± 0.04 | 0.884 ± 0.039 | 0.85 ± 0.032 | 1.008 ± 0.0076 | 1.01 ± 0.024 | 1.06 ± 0.029 | 1.02 ± 0.031 | 1.03 ± 0.045 | 0.922 ± 0.032 | 0.913 ± 0.014 | 0.834 ± 0.02
JIMT1 BREAST | 0.948 ± 0.055 | 0.945 ± 0.052 | 0.98 ± 0.067 | 0.9615 ± 0.0036 | 0.881 ± 0.045 | 0.885 ± 0.05 | 0.864 ± 0.031 | 0.856 ± 0.054 | 0.917 ± 0.035 | 0.911 ± 0.024 | 0.9352 ± 0.0078 | 0.907 ± 0.023 | 0.934 ± 0.026 | 0.9217 ± 0.0036 | 0.9207 ± 0.0084 | 0.846 ± 0.025
